Results as given in PMC10443802, “Targeting a xenobiotic transporter to ameliorate vincristine-induced sensory neuropathy” (JCI Insight, 2023).
Values joined by “and” are separate entries in the source; they are usually repeats but may differ in a detail not shown here. Equal values may be shown once.

How the values were obtained:
hOATP1B3 = target: T1, hOATP1B3 (Homo sapiens, UniProt Q9NPD5); test: Nilotinib uptake in HEK293 cells overexpressing hOATP1B3; type: in vitro ADME; settings: HEK293 cells overexpressing hOATP1B3 vs vector control
T1 sequence (Q9NPD5 1-702): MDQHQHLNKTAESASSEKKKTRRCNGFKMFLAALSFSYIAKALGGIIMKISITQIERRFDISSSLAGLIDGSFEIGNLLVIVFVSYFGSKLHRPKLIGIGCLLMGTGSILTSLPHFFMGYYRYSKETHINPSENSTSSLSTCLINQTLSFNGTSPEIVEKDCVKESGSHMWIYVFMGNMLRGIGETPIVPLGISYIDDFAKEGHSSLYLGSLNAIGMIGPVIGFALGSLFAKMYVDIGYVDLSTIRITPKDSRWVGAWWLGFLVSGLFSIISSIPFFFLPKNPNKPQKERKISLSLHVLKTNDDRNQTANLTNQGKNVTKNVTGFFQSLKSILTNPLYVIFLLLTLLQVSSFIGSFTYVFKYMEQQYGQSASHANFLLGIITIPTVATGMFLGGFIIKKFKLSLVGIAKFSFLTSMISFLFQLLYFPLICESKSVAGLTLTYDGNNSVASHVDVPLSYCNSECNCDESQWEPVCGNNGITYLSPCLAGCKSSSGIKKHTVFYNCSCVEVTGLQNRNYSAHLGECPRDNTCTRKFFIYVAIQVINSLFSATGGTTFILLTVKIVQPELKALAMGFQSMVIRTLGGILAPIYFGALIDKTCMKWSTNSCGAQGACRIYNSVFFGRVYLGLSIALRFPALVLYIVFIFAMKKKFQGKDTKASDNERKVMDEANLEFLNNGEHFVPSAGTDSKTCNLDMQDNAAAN

hOATP1C1 = hOATP1C1 (Homo sapiens, UniProt Q9NYB5); test: Substrate uptake in HEK293 cells overexpressing hOATP1C1; settings: HEK293 OATP1C1
Source text: transfected with transporters of interest, including hOAT1, hOAT3, hOAT4, hOATP1A2, hOATP3A1, hOATP4A1, hOATP5A1, hOATP1C1, hOATP1B1, hOATP1B3, hOATP2B1, hOCT1, hOCT2, hOCTN1, hOCTN2, hASBT, hNTCP, hNPT1, hMATE1, hOSTα/β, hPEPT1, hPEPT2, rOatp1a1, rOatp1a4, rOatp1a5, rOatp1b2, rNtcp, rAsbt, rOat1, and rOct1. Cells were transfected with expression plasmid or vector control lacking any insert using Lipofectin reagent (Invitrogen). Sixteen hours thereafter, cells were washed with transport media (OPTIMEM, Invitrogen) and treated with radiolabeled drug. At various time intervals, cells were washed three times with ice-cold PBS and then lysed with 1% sodium dodecyl sulfate. The cellular radioactivity was quantified by liquid scintillation counting as described above. Similar analyses were performed in HEK293 cells transfected with hOATP1A2, hOATP1C1, mMATE1, and hMATE1, with cells seeded in poly lysine pre-coated 12-well plates. For hOATP1A2 and hOATP1C1, transient transfections were performed with either an empty vector, OATP1A2, or OATP1C1 using Lipofectamine 2000 according to the manufacturers protocol (Invitrogen). At 48 h post transfection, […]
(§1) Samples were analyzed using real-time quantitative PCR and Taqman Probes (Applied Biosystems). The relative gene expression was determined using the ΔΔCt method, and normalized to the mouse or human housekeeping gene, GAPDH. […]

hOATP5A1 = hOATP5A1 (Homo sapiens, UniProt Q9H2Y9); test: Vincristine uptake screen, HeLa cells overexpressing hOATP5A1; type: in vitro ADME
Description: (§2) Relative uptake is expressed as percentage change compared with empty vector controls (n = 4–14 per group). […] Human OATP1B1 and OATP1B3 transporter–overexpressed cells were used as positive controls; empty vector controls were used as the negative control. […] Mechanical allodynia (C), thermal hyperalgesia (D), and sciatic nerve maximal action potential amplitudes (E) are expressed as percentage change relative to baseline values (n = 6–8 per group). Statistical analysis was performed using a 2-way ANOVA with Bonferroni’s post hoc test. **P < 0.01, ***P < 0.001, ****P < 0.0001, compared with baseline values. […] Data are shown as mean ± SEM. […]
(§3) transfected with transporters of interest, including hOAT1, hOAT3, hOAT4, hOATP1A2, hOATP3A1, hOATP4A1, hOATP5A1, hOATP1C1, hOATP1B1, hOATP1B3, hOATP2B1, hOCT1, hOCT2, hOCTN1, hOCTN2, hASBT, hNTCP, hNPT1, hMATE1, hOSTα/β, hPEPT1, hPEPT2, rOatp1a1, rOatp1a4, rOatp1a5, rOatp1b2, rNtcp, rAsbt, rOat1, and rOct1. Cells were transfected with expression plasmid or vector control lacking any insert using Lipofectin reagent (Invitrogen). Sixteen hours thereafter, cells were washed with transport media (OPTIMEM, Invitrogen) and treated with radiolabeled drug. […] The cellular radioactivity was quantified by liquid scintillation counting as described above. […]

hOATP1A2 = hOATP1A2 (Homo sapiens, UniProt P46721); test: Vincristine uptake screen, HeLa cells overexpressing hOATP1A2; type: in vitro ADME
Description: as §2
as §3, with “(Invitrogen).” for “(Invitrogen). Sixteen hours thereafter, cells were washed with transport media (OPTIMEM, Invitrogen) and treated with radiolabeled drug.”
as §1

patients with cancer = settings: cited from earlier work

Sequence of hOATP5A1 (Q9H2Y9 whole entry): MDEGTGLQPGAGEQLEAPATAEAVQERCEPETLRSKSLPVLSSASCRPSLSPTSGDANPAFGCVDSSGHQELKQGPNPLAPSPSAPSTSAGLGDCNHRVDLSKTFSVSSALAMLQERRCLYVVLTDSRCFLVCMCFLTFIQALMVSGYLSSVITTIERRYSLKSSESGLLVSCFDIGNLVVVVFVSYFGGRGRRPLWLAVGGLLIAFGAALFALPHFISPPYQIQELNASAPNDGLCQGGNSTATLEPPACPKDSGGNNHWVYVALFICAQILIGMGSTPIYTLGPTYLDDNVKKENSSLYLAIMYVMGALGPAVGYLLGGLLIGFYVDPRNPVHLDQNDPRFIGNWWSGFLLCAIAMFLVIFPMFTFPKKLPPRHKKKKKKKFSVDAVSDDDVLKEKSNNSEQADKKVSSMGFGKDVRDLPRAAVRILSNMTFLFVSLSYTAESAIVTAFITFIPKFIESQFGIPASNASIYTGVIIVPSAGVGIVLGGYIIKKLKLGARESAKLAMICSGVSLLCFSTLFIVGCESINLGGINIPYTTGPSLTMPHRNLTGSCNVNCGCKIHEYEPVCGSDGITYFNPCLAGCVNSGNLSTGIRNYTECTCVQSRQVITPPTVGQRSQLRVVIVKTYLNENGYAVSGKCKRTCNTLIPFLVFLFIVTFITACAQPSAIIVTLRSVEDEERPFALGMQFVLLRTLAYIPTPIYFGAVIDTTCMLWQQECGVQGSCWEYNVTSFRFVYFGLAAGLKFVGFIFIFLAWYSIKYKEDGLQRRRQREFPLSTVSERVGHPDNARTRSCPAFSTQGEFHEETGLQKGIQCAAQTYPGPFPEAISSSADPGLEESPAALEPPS
Sequence of hOATP1A2 (P46721 whole entry): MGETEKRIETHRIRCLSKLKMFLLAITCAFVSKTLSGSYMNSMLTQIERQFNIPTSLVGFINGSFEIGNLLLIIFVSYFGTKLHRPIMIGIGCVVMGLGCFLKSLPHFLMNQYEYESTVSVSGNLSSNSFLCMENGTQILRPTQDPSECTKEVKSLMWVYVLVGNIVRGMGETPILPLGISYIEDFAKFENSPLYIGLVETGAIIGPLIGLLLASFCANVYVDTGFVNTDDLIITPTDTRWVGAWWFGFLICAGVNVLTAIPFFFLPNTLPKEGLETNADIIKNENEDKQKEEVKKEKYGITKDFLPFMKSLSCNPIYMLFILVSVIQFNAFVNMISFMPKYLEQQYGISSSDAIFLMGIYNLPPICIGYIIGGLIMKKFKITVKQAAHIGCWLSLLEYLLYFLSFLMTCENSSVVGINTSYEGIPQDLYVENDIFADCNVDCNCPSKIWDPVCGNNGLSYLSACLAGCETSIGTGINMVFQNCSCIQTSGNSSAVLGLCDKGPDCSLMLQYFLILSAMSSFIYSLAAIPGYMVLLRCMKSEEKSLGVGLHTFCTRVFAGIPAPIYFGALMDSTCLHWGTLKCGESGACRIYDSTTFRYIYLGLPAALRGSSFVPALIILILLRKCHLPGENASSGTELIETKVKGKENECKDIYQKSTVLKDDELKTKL
Sequence of hOATP1C1 (Q9NYB5 whole entry): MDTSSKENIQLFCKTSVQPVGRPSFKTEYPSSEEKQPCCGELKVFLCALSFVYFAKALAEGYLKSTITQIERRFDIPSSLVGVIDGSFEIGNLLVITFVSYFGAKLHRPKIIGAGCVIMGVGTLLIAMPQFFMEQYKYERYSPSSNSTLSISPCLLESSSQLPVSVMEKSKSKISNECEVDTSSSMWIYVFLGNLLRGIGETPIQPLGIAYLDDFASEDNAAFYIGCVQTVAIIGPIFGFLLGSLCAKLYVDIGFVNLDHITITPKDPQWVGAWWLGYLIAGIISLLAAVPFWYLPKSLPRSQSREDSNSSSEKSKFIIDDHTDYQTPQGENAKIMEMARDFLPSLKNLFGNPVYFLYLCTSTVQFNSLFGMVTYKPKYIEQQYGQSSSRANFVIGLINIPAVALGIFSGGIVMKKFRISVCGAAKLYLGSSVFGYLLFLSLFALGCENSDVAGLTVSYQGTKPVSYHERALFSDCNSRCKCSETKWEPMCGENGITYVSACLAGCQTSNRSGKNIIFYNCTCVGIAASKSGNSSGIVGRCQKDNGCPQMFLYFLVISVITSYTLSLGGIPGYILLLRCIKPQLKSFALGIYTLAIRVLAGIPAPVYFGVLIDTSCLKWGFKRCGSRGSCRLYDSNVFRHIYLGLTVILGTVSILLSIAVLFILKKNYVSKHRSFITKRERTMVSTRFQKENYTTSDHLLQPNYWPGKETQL

Row | Structure (SMILES) | Nilotinib uptake (% of control) (hOATP1B3) | Contribution of transporter to cellular uptake of vincristine (hOATP1C1) | Vincristine uptake (% of vector control) (hOATP5A1) | Vincristine uptake (% of vector control) (hOATP1A2) | Incidence of sensory peripheral neurotoxicity (patients with cancer)
1 | Cc1cn(-c2cc(NC(=O)c3ccc(C)c(Nc4nccc(-c5cccnc5)n4)c3)cc(C(F)(F)F)c2)cn1 [Nilotinib, nilotinib] | 123.521 % of control and 118.661 % of control and 108.968 % of control | – | – | – | –
2 | CC[C@]1(O)C[C@H]2CN(CCc3c([nH]c4ccccc34)[C@@](C(=O)OC)(c3cc4c(cc3OC)N(C=O)[C@H]3[C@@](O)(C(=O)OC)[C@H](OC(C)=O)[C@]5(CC)C=CCN6CC[C@]43[C@@H]65)C2)C1 [Vincristine, vincristine] | – | do not appreciably contribute to the cellular uptake of vincristine | 109.00 % of vector control and 94.00 % of vector control and 90.00 % of vector control and 76.00 % of vector control and 77.00 % of vector control and 86.00 % of vector control and 80.00 % of vector control and 85.00 % of vector control | 186.00 % of vector control and 176.00 % of vector control and 142.00 % of vector control and 167.00 % of vector control and 183.00 % of vector control and 171.00 % of vector control and 148.00 % of vector control and 164.00 % of vector control | up to 100%
